Molecular target: T1, CD73 (Homo sapiens, UniProt P21589)
T1 sequence (P21589 27-549): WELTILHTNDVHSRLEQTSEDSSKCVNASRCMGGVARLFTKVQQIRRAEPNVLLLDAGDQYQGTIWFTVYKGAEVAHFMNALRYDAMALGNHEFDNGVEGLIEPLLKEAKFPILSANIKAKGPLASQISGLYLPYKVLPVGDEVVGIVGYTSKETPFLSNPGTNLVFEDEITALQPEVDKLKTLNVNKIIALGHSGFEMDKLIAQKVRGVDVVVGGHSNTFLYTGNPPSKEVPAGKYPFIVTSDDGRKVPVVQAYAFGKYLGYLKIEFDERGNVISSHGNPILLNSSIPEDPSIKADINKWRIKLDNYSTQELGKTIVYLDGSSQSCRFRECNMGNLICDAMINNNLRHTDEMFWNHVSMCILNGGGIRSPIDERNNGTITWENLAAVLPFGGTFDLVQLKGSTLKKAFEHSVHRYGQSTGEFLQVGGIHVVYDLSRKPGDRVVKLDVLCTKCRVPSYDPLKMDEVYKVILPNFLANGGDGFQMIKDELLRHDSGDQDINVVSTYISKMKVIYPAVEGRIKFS
Experiment: Biochemical assay of CD73 inhibition (Malachite Green)
Conditions: CD73 0.3208 nM, AMP 15 μM, Tris-HCl pH 7.4, Malachite Green absorbance readout; read-out: CD73_Biochem
Description: Example A1: Biochemical Assay
Assay Reaction Conditions
• Assay Volume: 70 μl • Reaction Volume: 50 μl • CD73: 0.3208 nM • AMP:15 μM • Assay Buffer: 2 5 mM Tris-HCL, pH 7.4, 0.01% Brij-35, 0.01% BSA, 5 mM MgCl2 Assay Procedure:
Made dose titration of testing compounds in assay buffer, 10 points 1/2 log titrations in duplicates starting at 100 μM.
Added 25 µl of CD73 to each well for a final concentration of […].
Incubated at RT for 15 min.
Added 25 µl of AMP to each well for a final concentration of 15 μM.
Incubated at RT for 10 min.
Added […] of Malachite Green Reagent A, incubate at RT for 10 min.
Added […] of Malachite Green Reagent B, incubate at RT for 45 min.
Read the Absorbance on Envision plate reader using excitation filter: Cy5 […].
The ability of the compounds disclosed herein to inhibit CD73 activity was quantified and the respective IC50 values were determined. Table 2 provides the biochemical IC50 values of compounds disclosed herein.

SMILES | IC50
O=P(O)(O)[C@](CO)(Cc1nn[nH]n1)OC[C@H]1O[C@@H](n2ncc3c(NCc4ccccc4Cl)nc(Cl)nc32)[C@H](O)[C@@H]1O (single isomer, unassigned) [Example 4] | 10 to 100 nM
COCC(CCC(=O)O)(OC[C@H]1O[C@@H](n2ncc3c(NC4CCCC4)nc(Cl)nc32)[C@H](O)[C@@H]1O)P(=O)(O)O (stereo partly drawn) [Example 6, 4-(((2R,3S,4R,5R)-5-(6-chloro-4-(cyclopentylamino)-1H-pyrazolo[3,4-d]pyrimidin-1-yl)-3,4-dihydroxytetrahydrofuran-2-yl)methoxy)-5-methoxy-4-phosphonopentanoic acid] | ≤ 10 nM
COC[C@@](CC(=O)NO)(OC[C@H]1O[C@@H](n2ncc3c(NC4CCCC4)nc(Cl)nc32)[C@H](O)[C@@H]1O)P(=O)(O)O [Example 7, ((S)-2-(((2R,3S,4R,5R)-5-(6-chloro-4-(cyclopentylamino)-1H-pyrazolo[3,4-d]pyrimidin-1-yl)-3,4-dihydroxytetrahydrofuran-2-yl)methoxy)-4-(hydroxyamino)-1-methoxy-4-oxobutan-2-yl)phosphonic acid] | ≤ 10 nM
COC[C@](CC(=O)NO)(OC[C@H]1O[C@@H](n2ncc3c(NC4CCCC4)nc(Cl)nc32)[C@H](O)[C@@H]1O)P(=O)(O)O [Example 8, ((R)-2-(((2R,3S,4R,5R)-5-(6-chloro-4-(cyclopentylamino)-1H-pyrazolo[3,4-d]pyrimidin-1-yl)-3,4-dihydroxytetrahydrofuran-2-yl)methoxy)-4-(hydroxyamino)-1-methoxy-4-oxobutan-2-yl)phosphonic acid] | ≤ 10 nM
COC[C@](Cc1nn[nH]n1)(OC[C@H]1O[C@@H](n2ncc3c(NC4CCC4)nc(CO)nc32)[C@H](O)[C@@H]1O)P(=O)(O)O [Example 9, ((R)-2-(((2R,3S,4R,5R)-5-(4-(cyclobutylamino)-6-(hydroxymethyl)-1H-pyrazolo[3,4-d]pyrimidin-1-yl)-3,4-dihydroxytetrahydrofuran-2-yl)methoxy)-1-methoxy-3-(2H-tetrazol-5-yl)propan-2-yl)phosphonic acid] | ≤ 10 nM
COC[C@](COCC(=O)O)(OC[C@H]1O[C@@H](n2ncc3c(NC4CCCC4)nc(Cl)nc32)[C@H](O)[C@@H]1O)P(=O)(O)O [Example 10] | 10 to 100 nM
COCC(CC(=O)NO)(OC[C@H]1O[C@@H](n2ncc3c(NC4CCCC4)nc(Cl)nc32)[C@H](O)[C@@H]1O)P(=O)(O)O (stereo partly drawn) [Example 11, (2-(((2R,3S,4R,5R)-5-(6-chloro-4-(cyclopentylamino)-1H-pyrazolo[3,4-d]pyrimidin-1-yl)-3,4-dihydroxytetrahydrofuran-2-yl)methoxy)-4-(hydroxyamino)-1-methoxy-4-oxobutan-2-yl)phosphonic acid] | ≤ 10 nM
COCC(CC(=O)NS(C)(=O)=O)(OC[C@H]1O[C@@H](n2ncc3c(NC4CCCC4)nc(Cl)nc32)[C@H](O)[C@@H]1O)P(=O)(O)O (stereo partly drawn) [Example 12, (2-(((2R,3S,4R,5R)-5-(6-chloro-4-(cyclopentylamino)-1H-pyrazolo[3,4-d]pyrimidin-1-yl)-3,4-dihydroxytetrahydrofuran-2-yl)methoxy)-1-methoxy-4-(methylsulfonamido)-4-oxobutan-2-yl)phosphonic acid] | ≤ 10 nM
O=P(O)(O)C(CO)(Cc1c[nH]nn1)OC[C@H]1O[C@@H](n2ncc3c(NC4CCCC4)nc(Cl)nc32)[C@H](O)[C@@H]1O (stereo partly drawn) [Example 13, (2-(((2R,3S,4R,5R)-5-(6-chloro-4-(cyclopentylamino)-1H-pyrazolo[3,4-d]pyrimidin-1-yl)-3,4-dihydroxytetrahydrofuran-2-yl)methoxy)-1-hydroxy-3-(1H-1,2,3-triazol-4-yl)propan-2-yl)phosphonic acid] | 10 to 100 nM
C[C@H]1CCC[C@@H]1Nc1nc(Cl)nc2c1cnn2[C@@H]1O[C@H](COC(CO)(CO)P(=O)(O)O)[C@@H](O)[C@H]1O [Example 14, (2-(((2R,3S,4R,5R)-5-(6-chloro-4-(((1S,2S)-2-methylcyclopentyl)amino)-1H-pyrazolo[3,4-d]pyrimidin-1-yl)-3,4-dihydroxytetrahydrofuran-2-yl)methoxy)-1,3-dihydroxypropan-2-yl)phosphonic acid] | ≤ 10 nM
COCC(OC[C@H]1O[C@@H](n2ncc3c(NC4CCCC4)nc(Cl)nc32)[C@H](O)[C@@H]1O)(C(=O)N(C)C)P(=O)(O)O (stereo partly drawn) [Example 15, (2-(((2R,3S,4R,5R)-5-(6-chloro-4-(cyclopentylamino)-1H-pyrazolo[3,4-d]pyrimidin-1-yl)-3,4-dihydroxytetrahydrofuran-2-yl)methoxy)-1-(dimethylamino)-3-methoxy-1-oxopropan-2-yl)phosphonic acid] | 10 to 100 nM
CC(C)CNc1nc(Cl)nc2c1cnn2[C@@H]1O[C@H](COC(CO)(Cc2nn[nH]n2)P(=O)(O)O)[C@@H](O)[C@H]1O (stereo partly drawn) [Example 16, (2-(((2R,3S,4R.,5R)-5-(6-chloro-4-(isobutylamino)-1H-pyrazolo[3,4-d]pyrimidin-1-yl)-3,4-dihydroxytetrahydrofuran-2-yl)methoxy)-1-hydroxy-3-(2H-tetrazol-5-yl)propan-2-yl)phosphonic acid] | ≤ 10 nM
O=P(O)(O)C(CO)(Cc1nn[nH]n1)OC[C@H]1O[C@@H](n2ncc3c(NC4CCC4)nc(CO)nc32)[C@H](O)[C@@H]1O (stereo partly drawn) [Example 17, (2-(((2R,3S,4R,5R)-5-(4-(cyclobutylamino)-6-(hydroxymethyl)-1H-pyrazolo[3,4-d]pyrimidin-1-yl)-3,4-dihydroxytetrahydrofuran-2-yl)methoxy)-1-hydroxy-3-(2H-tetrazol-5-yl)propan-2-yl)phosphonic acid] | ≤ 10 nM

More lines, now with the values ahead:

IC50 | SMILES
≤ 10 nM | COCCOCC(COCc1nnn[nH]1)(OC[C@H]1O[C@@H](n2ncc3c(NC4CCCC4)nc(Cl)nc32)[C@H](O)[C@@H]1O)P(=O)(O)O (single isomer, unassigned) [Example 1]
≤ 10 nM | O=P(O)(O)[C@@](CO)(Cc1nn[nH]n1)OC[C@H]1O[C@@H](n2ncc3c(NCc4ccccc4Cl)nc(Cl)nc32)[C@H](O)[C@@H]1O (single isomer, unassigned) [Example 3]
≤ 10 nM | O=P(O)(O)C(COCc1nnn[nH]1)(Cc1nnn[nH]1)OC[C@H]1O[C@@H](n2ncc3c(NC4CCCC4)nc(Cl)nc32)[C@H](O)[C@@H]1O (stereo in doubt) [Example 41, ((S)-1-((1H-tetrazol-5-yl)methoxy)-2-(((2R,3S,4R,5R)-5-(6-chloro-4-(cyclopentylamino)-1H-pyrazolo[3,4-d]pyrimidin-1-yl)-3,4-dihydroxytetrahydrofuran-2-yl)methoxy)-3-(1H-tetrazol-5-yl)propan-2-yl)phosphonic acid]
≤ 10 nM | O=P(O)(O)C(COCc1nnn[nH]1)(Cc1nnn[nH]1)OC[C@H]1O[C@@H](n2ncc3c(NC4CCCC4)nc(Cl)nc32)[C@H](O)[C@@H]1O (stereo in doubt) [Example 42, ((R)-1-((1H-tetrazol-5-yl)methoxy)-2-(((2R,3S,4R,5R)-5-(6-chloro-4-(cyclopentylamino)-1H-pyrazolo[3,4-d]pyrimidin-1-yl)-3,4-dihydroxytetrahydrofuran-2-yl)methoxy)-3-(1H-tetrazol-5-yl)propan-2-yl)phosphonic acid]
≤ 10 nM | O=P(O)(O)C(COCc1nnn[nH]1)(COCC1CC1)OC[C@H]1O[C@@H](n2ncc3c(NC4CCCC4)nc(Cl)nc32)[C@H](O)[C@@H]1O (stereo in doubt) [Example 44, ((R)-1-((1H-tetrazol-5-yl)methoxy)-2-(((2R,3S,4R,5R)-5-(6-chloro-4-(cyclopentylamino)-1H-pyrazolo[3,4-d]pyrimidin-1-yl)-3,4-dihydroxytetrahydrofuran-2-yl)methoxy)-3-(cyclopropylmethoxy)propan-2-yl)phosphonic acid]
≤ 10 nM | O=P(O)(O)C(COCc1nnn[nH]1)(COCC1CC1)OC[C@H]1O[C@@H](n2ncc3c(NC4CCCC4)nc(Cl)nc32)[C@H](O)[C@@H]1O (stereo in doubt) [Example 45, ((S)-1-((1H-tetrazol-5-yl)methoxy)-2-(((2R,3S,4R,5R)-5-(6-chloro-4-(cyclopentylamino)-1H-pyrazolo[3,4-d]pyrimidin-1-yl)-3,4-dihydroxytetrahydrofuran-2-yl)methoxy)-3-(cyclopropylmethoxy)propan-2-yl)phosphonic acid]
≤ 10 nM | O=P(O)(O)C(CO)(CCCc1nn[nH]n1)OC[C@H]1O[C@@H](n2ncc3c(NC4CCCC4)nc(Cl)nc32)[C@H](O)[C@@H]1O (stereo partly drawn) [Example 5, (2-(((2R,3S,4R,5R)-5-(6-chloro-4-(cyclopentylamino)-1H-pyrazolo[3,4-d]pyrimidin-1-yl)-3,4-dihydroxytetrahydrofuran-2-yl)methoxy)-1-hydroxy-5-(2H-tetrazol-5-yl)pentan-2-yl)phosphonic acid]
